Tests used:
wild oat = assay: Test B postemergence herbicide test; format: in vivo, Avena fatua; conditions: postemergence
Summary of the method: (§1)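 Each value is a visual 0–100 response rating taken against controls 13 to 15 days after treatment in the greenhouse. Plants received formulated chemical postemergence at the 1- to 4-leaf stage or, in flooded paddy, at the 2-leaf stage.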

wheat = assay: Test B postemergence herbicide test; format: in vivo, Triticum aestivum; set-up: key to Wheat plant response rating: 0 = no effect, 100 = complete control; conditions: postemergence
Summary of the method: as §1

morningglory = assay: Test B pre-/postemergence herbicide test; format: in vivo, Ipomoea coccinea; conditions: for Morningglory plant response rating: postemergence; for Plant response rating (0 to 100 scale), Morningglory: 0 is no effect
Summary of the method: (§2)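 Evaluation is visual, comparing treated with control plants on a scale where 0 means no effect and 100 means full control. Treatments were preemergence, or postemergence on seedlings 2–18 cm tall, and held 13–15 days in the greenhouse.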

cocklebur = assay: Test B pre-/postemergence herbicide test; format: in vivo, Xanthium strumarium; conditions: for Cocklebur plant response rating: postemergence; for Plant response rating (0 to 100 scale), Cocklebur: 0 is no effect
Summary of the method: as §2

ducksalad = assay: Test B flooded paddy test; format: in vivo, Heteranthera limosa; conditions: 1000 g ai/ha, scale 0 to 100 (0 no effect, 100 complete control)
Summary of the method: as §1

velvetleaf = assay: Test B pre-/postemergence herbicide test; format: in vivo, Abutilon theophrasti; conditions: for Velvetleaf plant response rating: postemergence; for Plant response rating (0 to 100 scale), Velvetleaf: 0 is no effect
Summary of the method: (§3)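 Response was scored visually 13 to 15 days after treatment against untreated greenhouse controls, 0 meaning no effect and 100 complete control. Formulations (solvent mixture plus surfactant) went onto soil after planting, onto foliage of 1- to 4-leaf plants, and onto 2-leaf plants in a flooded paddy set including rice and barnyardgrass.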

Surinam grass = assay: Test B pre-/postemergence herbicide test; format: in vivo, Urochloa decumbens; conditions: for Surinam Grass plant response rating: postemergence; for Plant response rating (0 to 100 scale), Surinam Grass: 0 is no effect
Summary of the method: as §3

large crabgrass = assay: Test B pre-/postemergence herbicide test; format: in vivo, Digitaria sanguinalis; conditions: for Crabgrass, Large plant response rating: postemergence; for Plant response rating (0 to 100 scale), Crabgrass, Large: 0 is no effect
Summary of the method: as §3

giant foxtail = assay: Test B pre-/postemergence herbicide test; format: in vivo, Setaria faberi; conditions: for Foxtail, Giant plant response rating: postemergence; for Plant response rating (0 to 100 scale), Foxtail, Giant: 0 is no effect
Summary of the method: as §3

[1] = test system: small flower umbrella sedge; assay: Test B flooded paddy test; format: in vivo, Cyperus difformis; conditions: 1000 g ai/ha, scale 0 to 100 (0 no effect, 100 complete control)
Summary of the method: as §1

corn = assay: Test B pre-/postemergence herbicide test; format: in vivo, Zea mays; conditions: for Corn plant response rating: postemergence; for Plant response rating (0 to 100 scale), Corn: 0 is no effect
Summary of the method: as §3

barnyardgrass [2] = assay: Test B pre-/postemergence herbicide test; format: in vivo, Echinochloa crus-galli; conditions: for Barnyardgrass plant response rating: postemergence; for Plant response rating (0 to 100 scale), Barnyardgrass: 0 is no effect
Summary of the method: as §2

blackgrass = assay: Test B postemergence herbicide test; format: in vivo, Alopecurus myosuroides; conditions: postemergence
Summary of the method: as §1

rice = assay: Test B flooded paddy test; format: in vivo, Oryza sativa; conditions: 1000 g ai/ha, scale 0 to 100 (0 no effect, 100 complete control)
Summary of the method: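 Postemergence plants were sprayed with formulated test chemicals at 2 to 18 cm height (1- to 4-leaf stage); paddy species were grown to the 2-leaf stage. After 13 to 15 days in a greenhouse, injury was rated visually against untreated controls on a 0–100 scale (0 = no effect, 100 = complete control).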

pigweed = assay: Test B pre-/postemergence herbicide test; format: in vivo, Amaranthus retroflexus; conditions: for Pigweed plant response rating: postemergence; for Plant response rating (0 to 100 scale), Pigweed: 0 is no effect
Summary of the method: as §3

barnyardgrass [3] = assay: Test B flooded paddy test; format: in vivo, Echinochloa crus-galli; conditions: 1000 g ai/ha, scale 0 to 100 (0 no effect, 100 complete control)
Summary of the method: as §1

[4] = 125 g ai/ha, visual rating, scale 0 (no effect) to 100 (complete control)
[5] = 500 g ai/ha, scale 0 to 100, 0 is no effect, 100 is complete control
[6] = 125 g ai/ha, 0 = no effect, 100 = complete control, preemergence
[7] = 500 g ai/ha, visual rating, 0 = no effect, 100 = complete control, preemergence
[8] = 125 g ai/ha, 100 is complete control, preemergence

CCOC(=O)c1cccc(NC(=O)c2cc(C(C)(C)C)nn2C)n1 [Compound 313]
Oat, Wild plant response rating (wild oat; [4]): 20 | Oat, Wild plant response rating (wild oat; [5]): 30 | Wheat plant response rating (wheat; [4]): 0 | Wheat plant response rating (wheat; [5]): 10 | Morningglory plant response rating (0 to 100 scale) (morningglory; [6]): 10 | Morningglory plant response rating (morningglory; [4]): 0 | Plant response rating, Morningglory (morningglory; [7]): 40 | Morningglory plant response rating (morningglory; [5]): 80 | Cocklebur plant response rating (0 to 100 scale) (cocklebur; [6]): 0 | Cocklebur plant response rating (cocklebur; [4]): 0 | Plant response rating, Cocklebur (cocklebur; [7]): 10 | Cocklebur plant response rating (cocklebur; [5]): 90 | Ducksalad plant response rating (ducksalad): 80 | Velvetleaf plant response rating (velvetleaf; [4]): 60 | Plant response rating, Velvetleaf (velvetleaf; [7]): 100 | Velvetleaf plant response rating (velvetleaf; [5]): 70 | Surinam Grass plant response rating (0 to 100 scale) (Surinam grass; [6]): 30 | Surinam Grass plant response rating (Surinam grass; [4]): 10 | Plant response rating, Surinam Grass (Surinam grass; [7]): 80 | Surinam Grass plant response rating (Surinam grass; [5]): 20 | Crabgrass, Large plant response rating (0 to 100 scale) (large crabgrass; [6]): 30 | Crabgrass, Large plant response rating (large crabgrass; [4]): 10 | Plant response rating, Crabgrass, Large (large crabgrass; [7]): 90 | Crabgrass, Large plant response rating (large crabgrass; [5]): 20 | Foxtail, Giant plant response rating (0 to 100 scale) (giant foxtail; [6]): 40 | Foxtail, Giant plant response rating (giant foxtail; [4]): 20 | Plant response rating, Foxtail, Giant (giant foxtail; [7]): 100 | Foxtail, Giant plant response rating (giant foxtail; [5]): 50 | Sedge, Umbrella plant response rating [1]: 80 | Corn plant response rating (0 to 100 scale) (corn; [6]): 10 | Corn plant response rating (corn; [4]): 10 | Plant response rating, Corn (corn; [7]): 30 | Corn plant response rating (corn; [5]): 20 | Barnyardgrass plant response rating (0 to 100 scale) (barnyardgrass [2]; [6]): 80 | Barnyardgrass plant response rating (barnyardgrass [2]; [4]): 30 | Plant response rating, Barnyardgrass (barnyardgrass [2]; [7]): 90 | Barnyardgrass plant response rating (barnyardgrass [2]; [5]): 50 | Blackgrass plant response rating (blackgrass; [4]): 0 | Blackgrass plant response rating (blackgrass; [5]): 10 | Rice plant response rating (rice): 80 | Pigweed plant response rating (0 to 100 scale) (pigweed; [6]): 100 | Pigweed plant response rating (pigweed; [4]): 60 | Plant response rating, Pigweed (pigweed; [7]): 100 | Pigweed plant response rating (pigweed; [5]): 70 | Barnyardgrass plant response rating (barnyardgrass [3]): 70

CCn1nc(C(C)(C)C)cc1C(=O)Nc1cccc(OC(F)F)c1 [Compound 332]
Oat, Wild plant response rating (wild oat; [4]): 40 | Oat, Wild plant response rating (wild oat; [5]): 60 | Wheat plant response rating (wheat; [4]): 20 | Wheat plant response rating (wheat; [5]): 30 | Plant response rating (0 to 100 scale), Morningglory (morningglory; [8]): 10 | Morningglory plant response rating (morningglory; [4]): 40 | Plant response rating, Morningglory (morningglory; [7]): 30 | Morningglory plant response rating (morningglory; [5]): 70 | Plant response rating (0 to 100 scale), Cocklebur (cocklebur; [8]): 0 | Cocklebur plant response rating (cocklebur; [4]): 30 | Plant response rating, Cocklebur (cocklebur; [7]): 0 | Cocklebur plant response rating (cocklebur; [5]): 70 | Ducksalad plant response rating (ducksalad): 90 | Plant response rating (0 to 100 scale), Velvetleaf (velvetleaf; [8]): 30 | Velvetleaf plant response rating (velvetleaf; [4]): 60 | Velvetleaf plant response rating (velvetleaf; [5]): 90 | Plant response rating (0 to 100 scale), Surinam Grass (Surinam grass; [8]): 10 | Surinam Grass plant response rating (Surinam grass; [4]): 20 | Plant response rating, Surinam Grass (Surinam grass; [7]): 20 | Surinam Grass plant response rating (Surinam grass; [5]): 40 | Plant response rating (0 to 100 scale), Crabgrass, Large (large crabgrass; [8]): 40 | Crabgrass, Large plant response rating (large crabgrass; [4]): 50 | Plant response rating, Crabgrass, Large (large crabgrass; [7]): 100 | Crabgrass, Large plant response rating (large crabgrass; [5]): 80 | Plant response rating (0 to 100 scale), Foxtail, Giant (giant foxtail; [8]): 20 | Foxtail, Giant plant response rating (giant foxtail; [4]): 30 | Plant response rating, Foxtail, Giant (giant foxtail; [7]): 60 | Foxtail, Giant plant response rating (giant foxtail; [5]): 50 | Sedge, Umbrella plant response rating [1]: 90 | Plant response rating (0 to 100 scale), Corn (corn; [8]): 0 | Corn plant response rating (corn; [4]): 0 | Plant response rating, Corn (corn; [7]): 0 | Corn plant response rating (corn; [5]): 10 | Plant response rating (0 to 100 scale), Barnyardgrass (barnyardgrass [2]; [8]): 10 | Barnyardgrass plant response rating (barnyardgrass [2]; [4]): 20 | Plant response rating, Barnyardgrass (barnyardgrass [2]; [7]): 60 | Barnyardgrass plant response rating (barnyardgrass [2]; [5]): 60 | Blackgrass plant response rating (blackgrass; [4]): 40 | Blackgrass plant response rating (blackgrass; [5]): 80 | Rice plant response rating (rice): 50 | Plant response rating (0 to 100 scale), Pigweed (pigweed; [8]): 100 | Pigweed plant response rating (pigweed; [4]): 100 | Plant response rating, Pigweed (pigweed; [7]): 100 | Pigweed plant response rating (pigweed; [5]): 100 | Barnyardgrass plant response rating (barnyardgrass [3]): 60

CCn1nc(C(C)(C)C)cc1C(=O)Nc1cc(C(=S)N(C)C)ccn1 [Compound 334]
Oat, Wild plant response rating (wild oat; [4]): 20 | Oat, Wild plant response rating (wild oat; [5]): 30 | Wheat plant response rating (wheat; [4]): 10 | Wheat plant response rating (wheat; [5]): 20 | Plant response rating (0 to 100 scale), Morningglory (morningglory; [8]): 0 | Morningglory plant response rating (morningglory; [4]): 50 | Plant response rating, Morningglory (morningglory; [7]): 70 | Morningglory plant response rating (morningglory; [5]): 80 | Plant response rating (0 to 100 scale), Cocklebur (cocklebur; [8]): 60 | Cocklebur plant response rating (cocklebur; [4]): 20 | Plant response rating, Cocklebur (cocklebur; [7]): 100 | Cocklebur plant response rating (cocklebur; [5]): 70 | Ducksalad plant response rating (ducksalad): 90 | Plant response rating (0 to 100 scale), Velvetleaf (velvetleaf; [8]): 100 | Velvetleaf plant response rating (velvetleaf; [4]): 50 | Velvetleaf plant response rating (velvetleaf; [5]): 60 | Plant response rating (0 to 100 scale), Surinam Grass (Surinam grass; [8]): 80 | Surinam Grass plant response rating (Surinam grass; [4]): 20 | Plant response rating, Surinam Grass (Surinam grass; [7]): 100 | Surinam Grass plant response rating (Surinam grass; [5]): 50 | Plant response rating (0 to 100 scale), Crabgrass, Large (large crabgrass; [8]): 90 | Crabgrass, Large plant response rating (large crabgrass; [4]): 10 | Plant response rating, Crabgrass, Large (large crabgrass; [7]): 100 | Crabgrass, Large plant response rating (large crabgrass; [5]): 50 | Plant response rating (0 to 100 scale), Foxtail, Giant (giant foxtail; [8]): 90 | Foxtail, Giant plant response rating (giant foxtail; [4]): 10 | Plant response rating, Foxtail, Giant (giant foxtail; [7]): 100 | Foxtail, Giant plant response rating (giant foxtail; [5]): 60 | Sedge, Umbrella plant response rating [1]: 80 | Plant response rating (0 to 100 scale), Corn (corn; [8]): 20 | Corn plant response rating (corn; [4]): 0 | Plant response rating, Corn (corn; [7]): 70 | Corn plant response rating (corn; [5]): 20 | Plant response rating (0 to 100 scale), Barnyardgrass (barnyardgrass [2]; [8]): 90 | Barnyardgrass plant response rating (barnyardgrass [2]; [4]): 0 | Plant response rating, Barnyardgrass (barnyardgrass [2]; [7]): 100 | Barnyardgrass plant response rating (barnyardgrass [2]; [5]): 60 | Blackgrass plant response rating (blackgrass; [4]): 30 | Blackgrass plant response rating (blackgrass; [5]): 70 | Rice plant response rating (rice): 80 | Plant response rating (0 to 100 scale), Pigweed (pigweed; [8]): 60 | Pigweed plant response rating (pigweed; [4]): 40 | Plant response rating, Pigweed (pigweed; [7]): 100 | Pigweed plant response rating (pigweed; [5]): 70 | Barnyardgrass plant response rating (barnyardgrass [3]): 90
